In US10626115B2, “Fused pyrimidinone and triazinone derivatives containing bridged nitrogen, their process of preparation and their therapeutic uses as antifungal and/or antiparasitic agents” (UNIVERSITE DE NANTES, priority 2015, dated 2020):
Values after ≈ are worked out from the molar mass of the structure shown.

How the values were obtained:
[1] = system: fluconazole-susceptible C. albicans strain: CAAL93; assay: Antifungal susceptibility, spectrofluorimetric microdilution, CAAL93; type: cell-based; settings: Candida albicans, read-out: MIC values CAAL93
Procedure: (§1) Eight strains of Candida spp. with various azoles-susceptibilities were used: • One fluconazole-susceptible C. albicans strain: CAAL93 • Two fluconazole-resistant C. albicans strains: CAAL111 (efflux pump) and CAAL117 (erg11 mutations+voriconazole-resistant) • five fluconazole-resistant Candida non albicans strains: C. krusei (CAKR7, CAKR8), C. glabrata (CAGL2), C. parapsilosis s.l. (CAPA1, CAPA2).
(§2) Antifungal susceptibility was evaluated with a spectrofluorimetric microdilution method.

[2] = system: fluconazole-resistant C. albicans strain CAAL111 (efflux pump); assay: microbe, parasite or virus in culture; type: cell-based; settings: Candida albicans, read-out: MIC values CAAL111
Procedure: as §1, §2

[3] = system: fluconazole-resistant C. glabrata (CAGL2); assay: microbe, parasite or virus in culture; type: cell-based; settings: Nakaseomyces glabratus, read-out: MIC values CAGL2
Procedure: as §1, §2

[4] = system: fluconazole-resistant C. krusei (CAKR7); assay: microbe, parasite or virus in culture; type: cell-based; settings: Pichia kudriavzevii, read-out: MIC values CAKR7
Procedure: as §1, §2

[5] = system: fluconazole-resistant C. krusei (CAKR8); assay: microbe, parasite or virus in culture; type: cell-based; settings: Pichia kudriavzevii, read-out: MIC values CAKR8
Procedure: as §1, §2

[6] = system: fluconazole-resistant C. parapsilosis s.l. (CAPA1); assay: microbe, parasite or virus in culture; type: cell-based; settings: Lodderomyces parapsilosis, read-out: MIC values CAPA1
Procedure: as §1, §2

[7] = system: fluconazole-resistant C. parapsilosis s.l. (CAPA2); assay: microbe, parasite or virus in culture; type: cell-based; settings: Lodderomyces parapsilosis, read-out: MIC values CAPA2
Procedure: as §1, §2

[8] = system: A. fumigatus susceptible strain ASFU76; assay: Antifungal susceptibility, spectrofluorimetric microdilution, ASFU76; type: cell-based, Aspergillus fumigatus; settings: Aspergillus fumigatus, read-out: MIC values ASFU76
Procedure: (§3) Eleven strains of A. fumigatus with various itraconazole susceptibility were used: • Five susceptible strains: ASFU7, ASFU35A, ASFU38A, ASFU76 and ASFU78. • Six itraconazole-resistant strains: ASFU77 (erg11 mutation), ASFU13, ASFU17, ASFU19, ASFU20, ASFU23.
(§4) Antifungal susceptibility was evaluated with a spectrofluorimetric microdilution method. MIC was the concentration that was able to inhibit 80% of fluorescence measured in the control wells.

[9] = system: A. fumigatus susceptible strain ASFU35A; assay: Antifungal susceptibility, spectrofluorimetric microdilution, ASFU35A; type: cell-based, Aspergillus fumigatus; settings: Aspergillus fumigatus, read-out: MIC values ASFU35A
Procedure: as §3, §4

[10] = system: A. fumigatus susceptible strain ASFU38A; assay: Antifungal susceptibility, spectrofluorimetric microdilution, ASFU38A; type: cell-based, Aspergillus fumigatus; settings: Aspergillus fumigatus, read-out: MIC values ASFU38A
Procedure: as §3, §4

[11] = system: A. fumigatus susceptible strain ASFU7; assay: Antifungal susceptibility, spectrofluorimetric microdilution, ASFU7; type: cell-based, Aspergillus fumigatus; settings: Aspergillus fumigatus, read-out: MIC values ASFU7
Procedure: as §3, §4

[12] = system: A. fumigatus susceptible strain ASFU78; assay: Antifungal susceptibility, spectrofluorimetric microdilution, ASFU78; type: cell-based, Aspergillus fumigatus; settings: Aspergillus fumigatus, read-out: MIC values ASFU78
Procedure: as §3, §4

[13] = system: A. fumigatus itraconazole-resistant strain ASFU77 (erg11 mutation); assay: Antifungal susceptibility, spectrofluorimetric microdilution, ASFU77; type: cell-based, Aspergillus fumigatus; settings: for MIC: Aspergillus fumigatus, read-out: MIC values ASFU77
Procedure: as §3, §4

[14] = Cytotoxicity on HeLa cells; type: cell-based, Human; settings: human, 50% inhibition of control fluorescence
Procedure: (§5) Hela Human cell line was used in view to evaluate cytotoxicity. It was evaluated with a spectrofluorimetric microdilution method. IC50 was the concentration that was able to inhibit 50% of fluorescence measured in the control wells.

[15] = system: Candida albicans strain (CAAL93); assay: Murine systemic candidiasis; type: in vivo; settings: neutropenic Swiss mice, CAAL93 i.v., 10 mg/kg per os once a day for 5 days; for survival compared with the non-treated group: 28 days (compound 51, 14 days); for survival compared with the non-treated group / activity on fungal burden of the kidney compared to FLC: p<0.05; for fungal burden of the kidney: p<0.05 (compound 51 p<0.001)
Procedure: (§6) Transiently neutropenic female Swiss mice were used for experiments on systemic candidiasis and invasive aspergillosis.
Mice were inoculated intravenously with a Candida albicans strain (CAAL93). Treatment was administrated once a day (10 mg/kg per os) for 5 days. […] Fungal burden of the kidney was evaluated in dead animals during the experimentation or in animals sacrificed at the end of the experimentation.

[16] = system: Aspergillus fumigatus (ASFU7) spores; assay: Murine invasive aspergillosis; type: in vivo; settings: neutropenic Swiss mice, ASFU7 spores i.v., 10 mg/kg per os once a day for 5 days
Procedure: as §6
Mice were inoculated intravenously with Aspergillus fumigatus (ASFU7) spores.
Treatment was administrated once a day (10 mg/kg per os) for 5 days. […] Fungal burden of the kidney was evaluated in dead animals during the experimentation or in animals sacrificed at the end of the experimentation.

[17] = system: promastigote stage of a Leishmania mexicana strain; assay: Anti-Trypanosomatidae activity, promastigote stage, spectrofluorimetric microdilution; type: cell-based; settings: for IC50: Leishmania mexicana, promastigote stage, 50% of control growth, read-out: L. mexicana (IC50 μM)
Procedure: Compounds were evaluated on the promastigote stage of a Leishmania mexicana strain using a spectrofluorimetric microdilution method. Inhibitory concentration 50 (IC50) was the concentration that inhibited 50% of the control growth.

Hela Human cell line = assay: Cytotoxicity on HeLa cells; type: cell-based; settings: 100 μM
Procedure: as §5

[18] = system: fluconazole-resistant C. albicans strain CAAL117 (erg11 mutations+voriconazole-resistant); assay: microbe, parasite or virus in culture; type: cell-based
Procedure: as §1, §2

[19] = system: A. fumigatus itraconazole-resistant strain ASFU13; assay: Antifungal susceptibility, spectrofluorimetric microdilution, ASFU13; type: cell-based, Aspergillus fumigatus
Procedure: as §3, §4

[20] = system: A. fumigatus itraconazole-resistant strain ASFU17; assay: Antifungal susceptibility, spectrofluorimetric microdilution, ASFU17; type: cell-based, Aspergillus fumigatus; settings: Aspergillus fumigatus, read-out: MIC values ASFU17
Procedure: as §3, §4

[21] = system: A. fumigatus itraconazole-resistant strain ASFU19; assay: Antifungal susceptibility, spectrofluorimetric microdilution, ASFU19; type: cell-based, Aspergillus fumigatus; settings: Aspergillus fumigatus, read-out: MIC values ASFU19
Procedure: as §3, §4

[22] = system: A. fumigatus itraconazole-resistant strain ASFU20; assay: Antifungal susceptibility, spectrofluorimetric microdilution, ASFU20; type: cell-based, Aspergillus fumigatus
Procedure: as §3, §4

[23] = system: A. fumigatus itraconazole-resistant strain ASFU23; assay: Antifungal susceptibility, spectrofluorimetric microdilution, ASFU23; type: cell-based, Aspergillus fumigatus
Procedure: as §3, §4

CRL:(WI) rats = assay: Acute oral toxicity study in rats; type: in vivo
Procedure: The single-dose oral toxicity of compound 51 was performed according to the acute toxic class method (OECD 423 and Commission Regulation (EC) No 440/2008 of 30 May 2008, B.1.Tris) in CRL:(WI) rats.
Two groups of three female CRL:(WI) rats were treated with the test item at a dose level of 300 mg/kg bw (Group 1 and Group 2).
A single oral treatment was carried out by gavage for each animal after an overnight food withdrawal. Food was made available again 3 hours after the treatment. The test item was administered formulated in DMSO at a concentration of 30 mg/mL at a dose volume of 10 mL/kg bw.
Initially, three females (Group 1) were treated at a dose level of 300 mg/kg bw. As no mortality was observed, a confirmatory group (Group 2) was treated at the same dose level.
Clinical observations were performed at 30 minutes, 1, 2, 3, 4 and 6 hours after dosing and daily for 14 days thereafter. Body weight was measured on days −1, 0 and 7 and before necropsy. All animals were subjected to a necropsy and a macroscopic examination

SMILES | MIC [1] [µg/mL] | MIC [2] [µg/mL] | MIC [3] [µg/mL] | MIC [4] [µg/mL] | MIC [5] [µg/mL] | MIC [6] [µg/mL] | MIC [7] [µg/mL] | MIC [8] [µg/mL] | MIC [9] [µg/mL] | MIC [10] [µg/mL] | MIC [11] [µg/mL] | MIC [12] [µg/mL] | MIC [13] [µg/mL] | survival efficiency compared with FLC [15] | survival compared with the non-treated group [15] | activity on fungal burden of the kidney compared to FLC [15] | fungal burden of the kidney [15] | effectiveness against the promastigote stage of L. Mexicana, in words [17] | IC50 [17] [µM] | cytotoxic effect at the higher concentration used (Hela Human cell line) | other results
C[C@@H](n1ccc2nc(-c3ccc(C#N)cc3)cn2c1=O)[C@](O)(Cn1cncn1)c1ccc(F)cc1F [Compound 34, 6-[(1R,2R)-2-(2,4-Difluorophenyl)-2-hydroxy-1-methyl-3-(1H-1,2,4-triazol-1-yl)propyl]-2-(4-cyanophenyl)imidazo[1,2-c]pyrimidin-5-one] | < 0.001 | 0.003 ± 0.001 (≈ 0.00615 µM) | 0.64 ± 0.27 (≈ 1.31 µM) | 0.45 ± 0.31 (≈ 0.923 µM) | 0.06 ± 0.01 (≈ 0.123 µM) | 0.002 ± 0.001 (≈ 0.0041 µM) | 0.002 ± 0.001 (≈ 0.0041 µM) | 6.44 ± 0.17 (≈ 13.2 µM) | 6.27 ± 0.3 (≈ 12.9 µM) | 12.6 ± 4.05 (≈ 25.9 µM) | 2.43 ± 0.19 (≈ 4.98 µM) | 5.98 ± 0.62 (≈ 12.3 µM) | 38.4 ± 13.1 (≈ 78.7 µM) | significantly more efficient than FLC | significant longer survival | significantly higher when compared to FLC | significantly decreased | effective | 2.8 ± 0.2 | – | IC50 [14]: 25 µM; survival ([16]; 14 days, p<0.01): did survive significantly longer; activity compared with compounds 29 and 35 ([16]; p<0.05): significantly more active than compounds 29 and 35; fungal burden of the kidney ([16]; p<0.05): significantly reduced
C[C@@H](n1ccc2nc(-c3ccc([N+](=O)[O-])cc3)cn2c1=O)[C@](O)(Cn1cncn1)c1ccc(F)cc1F [Compound 35, 6-[(1R,2R)-2-(2,4-Difluorophenyl)-2-hydroxy-1-methyl-3-(1H-1,2,4-triazol-1-yl)propyl]-2-(4-nitrophenyl)imidazo[1,2-c]pyrimidin-5-one] | < 0.001 | 0.007 ± 0.003 (≈ 0.0138 µM) | 0.2 ± 0.06 (≈ 0.394 µM) | – | 0.07 ± 0.01 (≈ 0.138 µM) | 0.011 ± 0.003 (≈ 0.0217 µM) | 0.004 ± 0.003 (≈ 0.00788 µM) | 7.45 ± 1 (≈ 14.7 µM) | 6.71 ± 0.06 (≈ 13.2 µM) | 25.6 ± 24.8 (≈ 50.5 µM) | 2.52 ± 0.05 (≈ 4.97 µM) | 6.19 ± 0.8 (≈ 12.2 µM) | 62.2 ± 2.92 (≈ 123 µM) | significantly more efficient than FLC | significant longer survival | significantly higher when compared to FLC | significantly decreased | effective | 11.4 ± 1.5 | didn't show any cytotoxic effect | –
COc1ccc(-c2cc3cnn([C@H](C)[C@](O)(Cn4cncn4)c4ccc(F)cc4F)c(=O)n3c2)cc1 [Compound 51, 3-[(1R,2R)-2-(2,4-Difluorophenyl)-2-hydroxy-1-methyl-3-(1,2,4-triazol-1-yl)propyl]-7-(4-methoxyphenyl)-3H-pyrrolo[1,2-d][1,2,4]triazin-4-one] | < 0.001 | < 0.001 | 0.017 ± 0.003 (≈ 0.0345 µM) | 0.062 ± 0.032 (≈ 0.126 µM) | 0.081 ± 0.009 (≈ 0.164 µM) | – | – | 6.52 ± 0.16 (≈ 13.2 µM) | 6.08 ± 0.29 (≈ 12.3 µM) | 5.84 ± 0.2 (≈ 11.9 µM) | 2.21 ± 0.09 (≈ 4.49 µM) | 6.01 ± 0.48 (≈ 12.2 µM) | 6.6 ± 0.24 (≈ 13.4 µM) | – | significant longer survival | – | most active | – | – | didn't show any cytotoxic effect | MIC ([18]; Candida albicans, read-out: MIC values CAAL117): 0.018 ± 0.002 µg/mL (≈ 0.0365 µM); fold more active than voriconazole against CAAL117 ([18]; compared with voriconazole): 100 fold; activity against ITRA-resistant isolate ASFU13, in words [19]: active; MIC ([19]; Aspergillus fumigatus, read-out: MIC values ASFU13): 2.03 µg/mL (≈ 4.12 µM); MIC [20]: > 49 µg/mL; MIC [21]: > 49 µg/mL; MIC values against ITRA-resistant isolate carrying M220T mutation (ASFU77), in words [13]: in the micromolar range; activity against ITRA-resistant isolate ASFU20, in words [22]: active; MIC ([22]; Aspergillus fumigatus, read-out: MIC values ASFU20): 3.14 µg/mL (≈ 6.38 µM); activity against ITRA-resistant isolate ASFU23, in words [23]: active; MIC ([23]; Aspergillus fumigatus, read-out: MIC values ASFU23): 1.92 µg/mL (≈ 3.9 µM); acute oral LD50 (CRL:(WI) rats; female CRL:(WI) rats, single oral gavage): above 300 mg/kg bw; GHS ranking for acute oral exposure (CRL:(WI) rats; female, CRL:(WI), rat, in vivo, po, 14 days): Category 4; body weight gains (CRL:(WI) rats; rat, in vivo, po, 300 mg/kg): no indication of a test item-related effect; clinical observations (CRL:(WI) rats; rat, in vivo, po, 300 mg/kg): hunched back and slightly decreased activity; mortality (CRL:(WI) rats; rat, in vivo, po, 300 mg/kg): did not cause mortality
